Test results taken from patent publication US4925861A, “Carboxystyrene derivatives and drugs containing them as effective ingredients” (Mitsubishi Kasei Corporation, priority 1987, dated 1990).

system: SRS extracted from guinea pig lung; assay: in vitro SRS antagonistic activity (contraction of isolated guinea pig ileum); type: cell-based; conditions: Cavia porcellus, concentration reducing the control contraction (one unit of SRS) of guinea pig ileum by 50%, Tyrode's solution, 37° C., mepyramine and atropine present, read-out: Anti-SRS Activity (Minimal Effective Concentration)
Method: The terminal ileum was taken from a male Hartley guinea pig (200 to 450 g) and the lumen was washed. The ileum was set in 5 ml of a tissue bath containing Tyrode's solution: NaCl 136 mM, KCl 2.7 mM, NaHCO3 11.9 mM, MgCl2 1.05 mM, CaCl2 1.8 mM, NaH2 PO4 0.4 mM, and glucose 5.6 mM. The temperature in the bath was kept at 37° C. and the bath was aerated by 95% oxygen/5% carbon dioxide. The buffer solution also contained 10^-7 g/ml mepyramine and 5×10^-8 g/ml atropine in order to prevent the contraction caused by histamine and acetylcholine. Isometric measurement was done by an […] transducer (TD-112S, NIPPON KODEN, Japan) and change of tension in gram was recorded in a recticorder (RTG-4124, NIPPON KODEN, Japan). A tension of 0.5 g was passively loaded on the ileum. Thus, the contraction response of the ileum to SRS extracted from guinea pig lung was observed. The tonic contraction corresponding to one unit of SRS which corresponded to 5 ng of histamine was used as control. Varying concentrations of each compound to be tested were added to the tissue bath. The concentration of each compound to be tested which reduced the contraction of the control by 50%, IC50, was shown as a minimal effective concentration in M in Table 3.

Row | SMILES | IC50 [nM]
1 | O=C(O)c1cccc(C=Cc2nc3ccccc3s2)c1 [Compound 1, 3-(2-(2-benzthiazolyl))ethenylbenzoic acid] | 200
2 | CCCc1csc(C=Cc2cccc(C(=O)O)c2)n1 [Compound 2] | 20
3 | O=C(O)c1cccc(C=Cc2ccc3ccccc3n2)c1 [Compound 3] | 50
4 | CC(C)c1csc(C=Cc2cccc(C(=O)O)c2)n1 [Compound 5, 3-(2-(4-isopropyl-2-thiazolyl))ethenylbenzoic acid] | 50
5 | O=C(O)CCCNC(=O)c1cccc(C=Cc2nc3ccccc3s2)c1 [Compound 6, 4-(N-(3-(2-(2-benzthiazolyl))ethenyl)benzoyl)aminobutyric acid] | 10000
6 | CC(C)(CNC(=O)c1cccc(C=Cc2nc3ccccc3s2)c1)C(=O)O [Compound 7] | 50

molecular target: Phospholipase A2 from Porcine Pancreas (Sus scrofa, UniProt P00592); assay: in vitro phospholipase inhibiting activity (DPybPC fluorescence); conditions: pH 8, read-out: Phospholipase A2 Inhibition (%)
Sequence (P00592 23-146): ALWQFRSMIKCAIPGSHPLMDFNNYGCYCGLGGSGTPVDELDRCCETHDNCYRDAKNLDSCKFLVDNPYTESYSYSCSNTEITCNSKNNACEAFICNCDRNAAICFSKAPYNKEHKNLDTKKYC
Method: In 2.4 ml of 5 mM tris(hydroxymethyl)aminomethane hydrochloride buffer (pH 8.0) containing 0.1M sodium chloride and 5 mM calcium chloride, 0.3 ml of a phospholipase A2 solution from Naja mocambique or Porcine pancreas (Sigma) in a final concentration of 0.014 units per 0.01 μg per ml was preincubated with 0.03 ml of an inhibitor at 25° C. for 15 minutes. A synthetic substrate DPybPC, 1,2-bis(4-(l-pyreno)butyryl)-syn-glycero-3-phosphorylcholine (0.3 ml, final concentration: 2 μM) was added and incubation was continued for 30 minutes. The reaction was terminated by addition of hydrochloric acid (1N, 0.5 ml), the fluorescence intensity was measured (Ex. 332 nm; Em. 382 nm) to calculate the activity of the phospholipase A2. The enzymes, synthetic substrate and inhibitor used were dissolved or diluted in the buffer.

Row | SMILES | inhibition at 10 µM [%]
7 | CC(C)c1csc(C=Cc2cccc(C(=O)NCC3(C(=O)O)CCCCC3)c2)n1 [Compound 22, 3-(N-(3-(2-(4-isopropyl-2-thiazolyl))ethenyl)benzoyl)amino-2-spiro-l'-cyclohexanepropionic acid] | 74

system: not listed separately; assay: Acute toxicity, oral, mice; conditions: mouse, in vivo, suspension in 1% tragacanth, ddy male mice, observed for 7 days
Description: A suspension of the compound according to the present invention in 1% tragacanth solution was orally administered to a group of 4 to 5 ddy male mice of 6 week old.

Row | SMILES | LD50 at 168 h [mg/kg]
8 | CC(C)(CNC(=O)c1cccc(C=Cc2nc3ccccc3s2)c1)C(=O)O [Compound 7] | > 700
9 | CCCc1csc(C=Cc2cccc(C(=O)NCC(CC)(CC)C(=O)O)c2)n1 [Compound 19, 3-(N-(3-(2-(4-propyl-2-thiazolyl))ethenyl)benzoyl)amino-2,2-diethylpropionic acid] | > 1000
